Ki data for 13 compounds are collected here from patent US6476051B2, “Antipsychotic heterocycle compounds” (Bristol-Myers Squibb Company, priority 1999, dated 2002).

Where two headings read alike, the source gives them in different places.

In assay [1] the target is T1, recombinant human dopamine D2L receptors (Homo sapiens, UniProt P14416).
T1 construct: expressed in transfected cells; host or cells: HEK-293 (HEK-D2L cells), membrane homogenates
Kind of assay: Dopamine binding protocol ([3H]-spiperone binding, HEK-D2L cell membranes). The procedure:
Like many clinically effective antipsychotic agents, the compounds of Formula I also are antagonists at the human D2L receptor as determined by [^3H]-spiperone binding studies using human D2L receptors stably expressed in HEK-293 cells.
HEK-293 cells that stably express recombinant human dopamine D2L receptors (HEK-D2L cells) were grown at 37° C. in 5% CO2 as a monolayer in medium consisting of EMEM supplemented with 10% fetal bovine serum and G418 sulfate (500 μg/ml). To prepare membranes for radioligand binding experiments, cells were rinsed twice with phosphate-buffered saline (138 mM NaCl, 4.1 mM KCl, 5.1 mM Na2PO4, 1.5 mM […] 11.1 mM glucose, pH 7.4), and incubated for 5-10 min. at 4° C. in hypotonic lysis buffer consisting of 10 mM Tris (pH 7.4) and 5 mM EDTA. Cells were transferred from plates to polypropylene tubes (16×100 mm), homogenized and centrifuged at 32,000×g for 20 min. Following centrifugation, pellets were resuspended by homogenization in buffer consisting of 50 mM Tris (pH 7.7 at 25° C.) and 1 mM EDTA. Homogenates were stored at −80° C. until needed. On the day of an experiment, homogenates were thawed then centrifuged at 32,000×g for 20 min. Following centrifugation, supernatants were discarded and pellets were resuspended in assay buffer consisting of 50 mM Tris (pH 7.4 at 25° C.), 1 mM EDTA and 6 mM MgCl2. Membrane homogenates (˜5 μg) were incubated with 150 pM [^3H]-spiperone (Amersham Life Science) and increasing concentrations of test compounds for 1.5 hours at 22° C. in a total volume of 400 μl. Reactions were stopped by addition of ice-cold assay buffer and filtration over glass fiber filters (Whatman GFB, pre-soaked in 0.05% polyethylenimine) using a microtitre format Brandel cell harvester. Filters were washed with 3 ml of ice-cold assay buffer. Non-specific binding was defined with 2 μM (+)butaclamol. Ki values were calculated using the method of Cheng and Prusoff (1973). Protein concentrations were determined by the method of Bradford (1976) with BSA as a standard.
Test data IC50 values lower than 250 nM are considered to reflect affinity for dopamine D2L receptors.

Assay [2] has as its target T2, human serotonin transporters (Homo sapiens, UniProt P31645).
T2 construct: expressed in transfected cells; host or cells: HEK-293 (HEK-hSERT cells), membrane homogenates
Kind of assay: Serotonin transporter binding assay ([3H]-citalopram binding, HEK-hSERT cell membranes). From the text:
The compounds of Formula I bind potently to the human 5-HT transporter and inhibit the re-uptake of endogenous serotonin. Selective serotonin reuptake inhibitors (SSRIs) are effective for the treatment of mental depression and have been reported to be useful for treating chronic pain (see: R. W. Fuller, Pharmacologic Modification of Serotonergic Function: Drugs for the Study and Treatment of Psychiatric and Other Disorders,” J. Clin. Psychiatry, 47:4 (Suppl.) April 1986, pp. 4-8). Compounds of the present invention are also envisioned to be useful for treating psychosis, acute mania, mild anxiety states or depression with secondary psychotic episodes. The present compounds are also envisioned to be useful in treating obsessive-compulsive disorders, feeding disorders, anxiety disorders and panic disorders.
HEK-293 cells that stably express human serotonin transporters (HEK-hSERT cells) were grown at 37° C. in 5% CO2 as a monolayer in medium consisting of EMEM supplemented with 10% fetal bovine serum and G418 sulfate (500 μg/ml). To prepare membranes for radioligand binding experiments, cells were rinsed twice with phosphate-buffered saline (138 mM NaCl, 4.1 mM KCl, 5.1 mM Na2PO4, 1.5 mM […], 11.1 mM glucose, pH 7.4). Cells were transferred from plates to polypropylene tubes (16×100 mm), centrifuged at 1,200×g for 5 min and were frozen at −80° C. until assay. Following centrifugation, pellets were resuspended by homogenization in buffer consisting of 50 mM Tris (pH 7.7 at 25° C.), 120 mM NaCl and 5 mM KCl and then centrifuged at 32,000×g for 10 min. Following centrifugation, supernatants were discarded and pellets were resuspended in buffer consisting of 50 mM Tris (pH 7.4 at 25° C.), 150 mM NaCl and 5 mM KCl. Membrane homogenates (200 μl/plate) were incubated with 1 nM [^3H]-citalopram (specific activity=85 Ci/mmol) and increasing concentrations of test compounds for 1 hour at 25° C. in a total volume of 250 μl. The assay buffer consisted of 50 mM Tris (pH 7.4 at 25° C.), 120 mM NaCl and 5 mM KCl (pH 7.4 with conc. HCl). Plates were incubated for 1 hour at 25° C., then filtered through 0.5% PEI treated Whatman GF/B filters using a Brandel cell harvester. Filters were washed three times with 3 ml of ice-cold tris wash buffer. Non-specific binding was defined with 10 μM fluoxetine. Amount of radioligand bound in the presence and absence of competitor was analyzed by plotting (−)log drug concentration versus the amount of radioligand specifically bound. The midpoint of the displacement curve (IC50, nM), signifies the potency. Ki values were calculated using the method of Cheng and Prusoff (1973).
Substances which inhibit the re-uptake of serotonin are recognized to be effective antidepressants (Selective Serotonin Reuptake Inhibitors. Edited by J P Feighner and W F Boyer, Chichester, England. John Wiley & Sons, 1991, pp 89-108). Test data IC50 values lower than 250 nM are considered to reflect activity as an inhibitor of serotonin re-uptake.

Setting [3] is: [3H]-spiperone, HEK-D2L membranes, read-out: dopamine D2L ligands with Ki.
Setting [4] is: [3H]-citalopram, HEK-hSERT membranes, read-out: inhibit the re-uptake of serotonin with Ki.

T2 sequence (P31645 whole entry): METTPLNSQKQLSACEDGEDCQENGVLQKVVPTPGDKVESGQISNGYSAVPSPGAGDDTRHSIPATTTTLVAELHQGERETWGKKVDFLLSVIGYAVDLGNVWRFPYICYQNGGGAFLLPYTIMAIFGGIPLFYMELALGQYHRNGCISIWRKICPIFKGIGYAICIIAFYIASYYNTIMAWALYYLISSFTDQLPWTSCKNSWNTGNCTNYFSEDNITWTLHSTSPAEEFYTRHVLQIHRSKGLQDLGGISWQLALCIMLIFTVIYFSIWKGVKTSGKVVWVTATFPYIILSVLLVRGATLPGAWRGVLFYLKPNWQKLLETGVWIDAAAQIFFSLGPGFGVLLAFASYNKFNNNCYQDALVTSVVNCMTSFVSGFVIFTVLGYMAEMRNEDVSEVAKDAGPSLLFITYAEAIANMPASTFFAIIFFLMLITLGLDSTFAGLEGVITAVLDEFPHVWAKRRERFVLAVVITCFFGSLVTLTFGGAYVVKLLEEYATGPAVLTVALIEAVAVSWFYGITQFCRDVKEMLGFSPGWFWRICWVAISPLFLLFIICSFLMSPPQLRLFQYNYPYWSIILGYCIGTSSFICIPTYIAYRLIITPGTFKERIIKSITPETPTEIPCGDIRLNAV
T1 sequence (P14416 whole entry): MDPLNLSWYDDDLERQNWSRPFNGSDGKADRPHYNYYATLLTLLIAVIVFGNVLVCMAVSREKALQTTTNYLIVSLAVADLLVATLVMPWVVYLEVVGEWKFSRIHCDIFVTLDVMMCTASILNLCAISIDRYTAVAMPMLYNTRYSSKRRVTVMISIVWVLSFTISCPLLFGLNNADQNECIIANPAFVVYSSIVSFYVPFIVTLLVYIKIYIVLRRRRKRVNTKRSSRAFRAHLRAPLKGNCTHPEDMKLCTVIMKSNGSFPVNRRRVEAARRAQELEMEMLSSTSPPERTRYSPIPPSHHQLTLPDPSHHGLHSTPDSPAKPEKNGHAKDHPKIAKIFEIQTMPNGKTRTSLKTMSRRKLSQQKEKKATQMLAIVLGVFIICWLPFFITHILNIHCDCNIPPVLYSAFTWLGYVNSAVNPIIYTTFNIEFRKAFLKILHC

The term Ki denotes the dissociation constant of the complex between target and ligand, obtained from inhibition or displacement. Regarding `Cc1nc2cc(OCCCN3CC=C(c4c[nH]c5cccc(F)c45)CC3)ccc2s1` [Example 11, 5-{3-[4-(4-fluoroindol-3-yl)-1,2,5,6-tetrahydropyrid-1-yl]propoxy}-2-methylbenzothiazole], the Ki in assay [1] and in assay [2] was less than 100 nM each time.

With `COc1ccc2[nH]cc(C3=CCN(CCCOc4ccc5sc(C)nc5c4)CC3)c2c1` [Example 31, 5-{3-[4-(5-methoxyindol-3-yl)-1,2,5,6-tetrahydropyrid-1-yl]propoxy}-2-methylbenzothiazole], the Ki in assay [1] and in assay [2] was less than 100 nM throughout.

Consider `N#Cc1ccc2[nH]cc(C3CCN(CCCOc4ccc(F)cc4)CC3)c2c1` [Example 6, 3-{1-[3-(4-fluorophenoxy)propyl]-4-piperidinyl}-5-cyanoindole], for which the Ki in assay [1] (setting [3]) and in assay [2] (setting [4]) was less than 100 nM each time.

With `Cc1nc2cc(OCCCN3CC=C(c4c[nH]c5ccc(Br)cc45)CC3)ccc2s1` [Example 36, 5-{3-[4-(5-bromoindol-3-yl)-1,2,5,6-tetrahydropyrid-1-yl]propoxy}-2-methylbenzothiazole], the Ki in assay [1] and in assay [2] was less than 100 nM each time.

For `COc1ccc2[nH]cc(C3=CCN(CCCCCOc4ccc5sc(C)nc5c4)CC3)c2c1` [Example 33, 5-{5-[4-(5-methoxyindol-3-yl)-1,2,5,6-tetrahydropyrid-1-yl]pentoxy}-2-methylbenzothiazole], the Ki in assay [1] and in assay [2] was less than 100 nM throughout.

Consider `Cc1nc2cc(OCCCCCN3CC=C(c4c[nH]c5ccc(Cl)cc45)CC3)ccc2s1` [Example 21, 5-{5-[4-(5-chloroindol-3-yl)-1,2,5,6-tetrahydropyrid-1-yl]pentoxy}-2-methylbenzothiazole], for which the inhibition constant Ki in assay [1] and in assay [2] was less than 100 nM in each case.

For `Cc1nc2cc(OCCCN3CC=C(c4c[nH]c5ccc(C#N)cc45)CC3)ccc2s1` [Example 12, 5-{3-[4-(5-cyanoindol-3-yl)-1,2,5,6-tetrahydropyrid-1-yl]propoxy}-2-methylbenzothiazole], the inhibition constant Ki in assay [1] and in assay [2] was less than 100 nM in each case.

Consider `Cc1nc2cc(OCCCCN3CC=C(c4c[nH]c5cc(Br)ccc45)CC3)ccc2s1` [Example 26, 5-{4-[4-(6-bromoindol-3-yl)1,2,5,6-tetrahydropyrid-1-yl]butoxy}-2-methylbenzothiazole], for which the Ki in assay [1] and in assay [2] was less than 100 nM throughout.

As for `Cc1nc2cc(OCCCCCN3CC=C(c4c[nH]c5ccc(F)cc45)CC3)ccc2s1` [Example 16, 5-{5-[4-(5-fluoroindol-3-yl)-1,2,5,6-tetrahydropyrid-1-yl]pentoxy}-2-methylbenzothiazole], the Ki in assay [1] and in assay [2] was less than 100 nM each time.

`Cc1nc2cc(OCCCN3CC=C(c4c[nH]c5c(Br)cccc45)CC3)ccc2s1` [Example 28, 5-{3-[4-(7-bromoindol-3-yl)-1,2,5,6-tetrahydropyrid-1-yl]propoxy}-2-methylbenzothiazole]: the inhibition constant Ki in assay [1] and in assay [2] was less than 100 nM throughout.

As for `Cc1nc2cc(OCCCCN3CC=C(c4c[nH]c5ccc(Cl)cc45)CC3)ccc2s1` [Example 20, 5-{4-[4-(5-chloroindol-3-yl)1,2,5,6-tetrahydropyrid-1-yl]butoxy}-2-methylbenzothiazole], the Ki in assay [1] and in assay [2] was less than 100 nM throughout.

With `Cc1nc2cc(OCCCCN3CC=C(c4c[nH]c5c(Br)cccc45)CC3)ccc2s1` [Example 29, 5-{4-[4-(7-bromoindol-3-yl)1,2,5,6-tetrahydropyrid-1-yl]butoxy}-2-methylbenzothiazole], the Ki in assay [1] and in assay [2] was less than 100 nM each time.

On to `Cc1nc2cc(OCCCN3CCC(Cc4cccc5c4OCO5)CC3)ccc2s1` [Example 41, 5-{3-[4-(2H-benzo[d]1,3-dioxolan-4-ylmethyl)piperidinyl]propoxy}-2-methylbenzothiazole], for which the Ki in assay [1] (setting [3]) and in assay [2] (setting [4]) was less than 100 nM each time.
